Test results as given in patent publication US9914731B2, “Pyrazolo[1,5-a]pyridine derivatives and methods of their use” (Ignyta, Inc., priority 2013, dated 2018).
Read-outs that look alike come from different tables or passages of the source.

Target: recombinant human baculovirus-expressed cMET (Homo sapiens (Human), UniProt P08581)
Experiment: c-MET kinase assay (HTRF KinEASE)
Type: biochemical
[1] = average of two or more determinations, read-out: c-MET IC50

Compound | IC50 [1] [nM] | other results
1-Methyl-5-trifluoromethyl-1H-pyrazole-4-carboxylic acid [4-(pyrazolo[1, 5-a]pyridin-4-yloxy)-phenyl]-amide [Example 17] | 1000 to 10000 | 
O=C(Nc1ccc(Oc2cccn3nccc23)cc1)c1cccn(-c2ccc(F)cc2)c1=O [Example 1, 1-(4-Fluoro-phenyl)-2-oxo-1,2-dihydro-pyridine-3-carboxylic acid [4-(pyrazolo[1,5-a]pyridin-4-yloxy)-phenyl]-amide] | < 10 | 
O=C(Nc1ccc(Oc2cccn3nccc23)c(F)c1)c1cccn(-c2ccc(F)cc2)c1=O [Example 4, 1-(4-Fluoro-phenyl)-2-oxo-1,2-dihydro-pyridine-3-carboxylic acid [3-fluoro-4-(pyrazolo[1,5-a]pyridin-4-yloxy)-phenyl]-amide] | < 10 | 
O=C(Nc1ccc(F)cc1)C1(C(=O)Nc2ccc(Oc3cccn4nccc34)c(F)c2)CC1 [Example 5, Cyclopropane-1,1-dicarboxylic acid (4-fluoro-phenyl)-amide [3-fluoro-4-(pyrazolo[1,5-a]pyridin-4-yloxy)-phenyl]-amide] | < 10 | 
O=C(Cc1ccc(F)cc1)NC(=S)Nc1ccc(Oc2cccn3nccc23)c(F)c1 [Example 6, 1-[2-(4-Fluoro-phenyl)-acetyl]-3-[3-fluoro-4-(pyrazolo[1,5-a]pyridin-4-yloxy)-phenyl]-thiourea] | 10 to 100 | 
O=C(Nc1ccc(Oc2cccn3nccc23)c(F)c1)c1cccn(Cc2ccc(F)cc2)c1=O [Example 8, 1-(4-Fluoro-benzyl)-2-oxo-1,2-dihydro-pyridine-3-carboxylic acid [3-fluoro-4-(pyrazolo[1,5-a]pyridin-4-yloxy)-phenyl]-amide] | 101 to 1000 | 
O=C(Nc1ccc(Oc2cccn3nccc23)c(F)c1)c1cccn(Cc2cccc(F)c2)c1=O [Example 9, 1-(3-Fluoro-benzyl)-2-oxo-1,2-dihydro-pyridine-3-carboxylic acid [3-fluoro-4-(pyrazolo[1,5-a]pyridin-4-yloxy)-phenyl]-amide] | 101 to 1000 | 
O=C(Nc1ccc(Oc2cccn3nccc23)c(F)c1)C1CCN(c2ccc(F)cc2)C1=O (stereo not drawn) [Example 10, 1-(4-Fluoro-phenyl)-2-oxo-pyrrolidine-3-carboxylic acid [3-fluoro-4-(pyrazolo[1,5-a]pyridin-4-yloxy)-phenyl]-amide] |  | IC50: 10 to 100 nM
O=C(Nc1ccc(Oc2cccn3nccc23)c(F)c1)c1c[nH]c(=O)n(-c2ccc(F)cc2)c1=O [Example 11, 3-(4-Fluoro-phenyl)-2,4-dioxo-1,2,3,4-tetrahydro-pyrimidine-5-carboxylic acid [3-fluoro-4-(pyrazolo[1,5-a]pyridin-4-yloxy)-phenyl]-amide] | 10 to 100 | 
O=C(Nc1ccc(Oc2cccn3nccc23)c(F)c1)c1c(I)ccn(-c2ccc(F)cc2)c1=O [Example 12, 1-(4-Fluoro-phenyl)-4-iodo-2-oxo-1,2-dihydro-pyridine-3-carboxylic acid [3-fluoro-4-(pyrazolo[1,5-a]pyridin-4-yloxy)-phenyl]-amide] | 10 to 100 | 
CCOc1ccn(-c2ccc(F)cc2)c(=O)c1C(=O)Nc1ccc(Oc2cccn3nccc23)c(F)c1 [Example 13, 4-Ethoxy-1-(4-fluoro-phenyl)-2-oxo-1,2-dihydro-pyridine-3-carboxylic acid [3-fluoro-4-(pyrazolo[1,5-a]pyridin-4-yloxy)-phenyl]-amide] | < 10 | 
CCOCCOc1ccn(-c2ccc(F)cc2)c(=O)c1C(=O)Nc1ccc(Oc2cccn3nccc23)c(F)c1 [Example 14, 4-(2-Ethoxy-ethoxy)-1-(4-fluoro-phenyl)-2-oxo-1,2-dihydro-pyridine-3-carboxylic acid [3-fluoro-4-(pyrazolo[1,5-a]pyridin-4-yloxy)-phenyl]-amide] | 10 to 100 | 
CCNc1ccn(-c2ccc(F)cc2)c(=O)c1C(=O)Nc1ccc(Oc2cccn3nccc23)c(F)c1 [Example 15, 4-Ethylamino-1-(4-fluoro-phenyl)-2-oxo-1,2-dihydro-pyridine-3-carboxylic acid [3-fluoro-4-(pyrazolo[1,5-a]pyridin-4-yloxy)-phenyl]-amide] | 10 to 100 | 
Cc1c(C(=O)Nc2ccc(Oc3cccn4nccc34)cc2)cnn1-c1ccc(F)cc1 [Example 18, 1-(4-Fluoro-phenyl)-5-methyl-1H-pyrazole-4-carboxylic acid [4-(pyrazolo[1,5-a]pyridin-4-yloxy)-phenyl]-amide] | 1000 to 10000 | 
O=C(Nc1ccc(Oc2cccn3nccc23)cc1)c1cnn(-c2ccccc2)c1C(F)(F)F [Example 19, 1-Phenyl-5-trifluoromethyl-1H-pyrazole-4-carboxylic acid [4-(pyrazolo[1,5-a]pyridin-4-yloxy)-phenyl]-amide] | 1000 to 10000 | 
Cc1nn(-c2ccccc2)c(C)c1C(=O)Nc1ccc(Oc2cccn3nccc23)cc1 [Example 20, 3,5-Dimethyl-1-phenyl-1H-pyrazole-4-carboxylic acid [4-(pyrazolo[1,5-a]pyridin-4-yloxy)-phenyl]-amide] | 1000 to 10000 | 
COc1cc(Oc2ccc(NC(=O)c3cccn(-c4ccc(F)cc4)c3=O)cc2F)c2ccnn2c1 [Example 22, 1-(4-Fluoro-phenyl)-2-oxo-1,2-dihydro-pyridine-3-carboxylic acid [3-fluoro-4-(6-methoxy-pyrazolo[1,5-a]pyridin-4-yloxy)-phenyl]-amide] | 101 to 1000 | 
O=C(Nc1ccc(Oc2cccn3ncc(Cl)c23)c(F)c1)c1cccn(-c2ccc(F)cc2)c1=O [Example 23, 1-(4-Fluoro-phenyl)-2-oxo-1,2-dihydro-pyridine-3-carboxylic acid [4-(3-chloro-pyrazolo[1,5-a]pyridin-4-yloxy)-3-fluoro-phenyl]-amide] | 101 to 1000 | 
O=C(Nc1ccc(Oc2cc(Br)cn3nccc23)c(F)c1)c1cccn(-c2ccc(F)cc2)c1=O [Example 24, (4-Fluoro-phenyl)-2-oxo-1,2-dihydro-pyridine-3-carboxylic acid [4-(6-bromo-pyrazolo[1,5-a]pyridin-4-yloxy)-3-fluoro-phenyl]-amide] | < 10 | 
Cn1cc(-c2cc(Oc3ccc(NC(=O)C4(C(=O)Nc5ccc(F)cc5)CC4)cc3F)c3ccnn3c2)cn1 [Example 32, Cyclopropane-1,1-dicarboxylic acid {3-fluoro-4-[6-(1-methyl-1H-pyrazol-4-yl)-pyrazolo[1,5-a]pyridin-4-yloxy]-phenyl}-amide(4-fluoro-phenyl)-amide] | < 10 | 
COc1ccc(-c2cc(Oc3ccc(NC(=O)c4cccn(-c5ccc(F)cc5)c4=O)cc3F)c3ccnn3c2)cn1 [Example 35, 1-(4-Fluoro-phenyl)-2-oxo-1,2-dihydro-pyridine-3-carboxylic acid {3-fluoro-4-[6-(6-methoxy-pyridin-3-yl)-pyrazolo[1,5-a]pyridin-4-yloxy]-phenyl}-amide] |  | IC50 (read-out: c-MET IC50): < 10 nM
CN1CCN(c2ccc(-c3cc(Oc4ccc(NC(=O)C5(C(=O)Nc6ccc(F)cc6)CC5)cc4F)c4ccnn4c3)cn2)CC1 [Example 36, Cyclopropane-1,1-dicarboxylic acid (3-fluoro-4-{6-[6-(4-methyl-piperazin-1-yl)-pyridin-3-yl]-pyrazolo[1,5-a]pyridin-4-yloxy}-phenyl)-amide (4-fluoro-phenyl)-amide] | < 10 | 
CN1CCN(c2ccc(-c3cc(Oc4ccc(NC(=O)c5cccn(-c6ccc(F)cc6)c5=O)cc4F)c4ccnn4c3)cn2)CC1 [Example 37, 1-(4-Fluoro-phenyl)-2-oxo-1,2-dihydro-pyridine-3-carboxylic acid (3-fluoro-4-{6-[6-(4-methyl-piperazin-1-yl)-pyridin-3-yl]-pyrazolo[1,5-a]pyridin-4-yloxy}-phenyl)-amide] | < 10 | 
CN1CCN(c2cc(Oc3ccc(NC(=O)c4cccn(-c5ccc(F)cc5)c4=O)cc3F)c3ccnn3c2)CC1 [Example 38, 1-(4-Fluoro-phenyl)-2-oxo-1,2-dihydro-pyridine-3-carboxylic acid {3-fluoro-4-[6-(4-methyl-piperazin-1-yl)-pyrazolo[1,5-a]pyridin-4-yloxy]-phenyl}-amide] | < 10 | 
Cn1nccc1-c1cc(Oc2ccc(NC(=O)c3cccn(-c4ccc(F)cc4)c3=O)cc2F)c2ccnn2c1 [Example 41, 1-(4-Fluoro-phenyl)-2-oxo-1,2-dihydro-pyridine-3-carboxylic acid{3-fluoro-4-[6-(2-methyl-2H-pyrazol-3-yl)-pyrazolo[1,5-a]pyridine-4-yloxy]-phenyl}-amide] | < 10 | 
O=C(Nc1ccc(Oc2cc(C3CCOCC3)cn3nccc23)c(F)c1)c1cccn(-c2ccc(F)cc2)c1=O [Example 47, 1-(4-Fluoro-phenyl)-2-oxo-1,2-dihydro-pyridine-3-carboxylic acid{3-fluoro-4-[6-(tetrahydro-pyran-4-yl)-pyrazolo[1,5-a]pyridin-4-yloxy]-phenyl}-amide] | < 10 | 
Cc1noc(C)c1-c1cc(Oc2ccc(NC(=O)c3cccn(-c4ccc(F)cc4)c3=O)cc2F)c2ccnn2c1 [Example 48, 1-(4-Fluoro-phenyl)-2-oxo-1,2-dihydro-pyridine-3-carboxylic acid{4-[6-(3,5-dimethyl-isoxazol-4-yl)-pyrazolo[1,5-a]pyridin-4-yloxy]-3-fluoro-phenyl}-amide] | < 10 | 
Cc1ccc(C(=O)Nc2ccc(Oc3cc(C4CCS(=O)(=O)CC4)cn4nccc34)c(F)c2)c(=O)n1-c1ccc(F)cc1 [Example 50, 1-(4-Fluoro-phenyl)-6-methyl-2-oxo-1,2-dihydro-pyridine-3-carboxylic acid {4-[6-(1,1-dioxo-hexahydro-thiopyran-4-yl)-pyrazolo[1,5-a]pyridin-4-yloxy]-3-fluoro-phenyl}-amide] | < 10 | 
CCn1cc(C(=O)Nc2ccc(Oc3cc(-c4cnco4)cn4nccc34)c(F)c2)c(=O)n(-c2ccc(F)cc2)c1=O [Example 52, 1-Ethyl-3-(4-fluoro-phenyl)-2,4-dioxo-1,2,3,4-tetrahydro-pyrimidine-5-carboxylic acid[3-fluoro-4-(6-oxazol-5-yl-pyrazolo[1,5-a]pyridin-4-yloxy)-phenyl]-amide] | < 10 | 
O=C(Nc1ccc(Oc2cc(-c3cnsc3)cn3nccc23)c(F)c1)c1cccn(-c2ccc(F)cc2)c1=O [Example 53, 1-(4-Fluoro-phenyl)-2-oxo-1,2-dihydro-pyridine-3-carboxylic acid[3-fluoro-4-(6-isothiazol-4-yl-pyrazolo[1,5-a]pyridin-4-yloxy)-phenyl]-amide] | < 10 | 
